Measurements taken from US20080221074A1, “Drug Screen and Treatment Method” (priority 2006, published 2008).

Assays:
[1] = tested on: lethal amount of bacterial lipopolysaccharide (LPS); experiment: lethal shock protocol; type: in vivo, mice
Description: Treatment of lethal inflammation/shock. Two compounds, 16α-bromoepiandrosterone (3β-hydroxy-16α-bromoandrostane-17-one) and 3β,16α-dihydroxy-17-oxoandrostane, were used in a lethal shock protocol. In one protocol, 3 mg of 16α-bromoepiandrosterone was administered to one group of animals by oral gavage, while another group received 3 mg of 16α-bromoepiandrosterone by subcutaneous injection. A group of control animals received a placebo control. In this protocol, the 16α-bromoepiandrosterone was administered to mice at 24 hours before and at 1 hour after administration of a lethal amount of bacterial lipopolysaccharide (LPS). By the end of the observation period, 72 hours after LPS administration, none of the vehicle treated placebo control animals had survived, while 65% of animals that received 16α-bromoepiandrosterone by oral administration survived. 50% of the animals that received 16α-bromoepiandrosterone by subcutaneous injection survived. Animals that survived for 72 hours all recovered from the LPS exposure.
In a second assay, 16α-bromoepiandrosterone or 3β,16α-dihydroxy-17-oxoandrostane was administered to mice by oral gavage at 24 hours before and 1 hour after administration of a lethal amount of LPS. A vehicle treated group of animals was used as the placebo control.

[2] = tested on: CD4^+CD25^+ T regulatory cells; experiment: generation of CD4+CD25+ T regulatory cells after adoptive transfer; type: in vivo, B6 mice; details: 1 mg/animal/day s.c. 14 days
Description: Inhibition of the generation of CD4^+CD25^+ T regulatory cells or their activity in vivo. Purified CD4^+CD25^− T cells (5×10^6 cells) from congenic B6.SJL mice (CD45.1) per group were adoptively transferred into each of five B6 mice (CD45.2). The purified CD4^+CD25^− T cells were obtained by fluorescence activated cell sorting (FACS) of the donor cells at least twice. Vehicle (0.1% carboxymethylcellulose, 0.9% saline, 2% tween 80, 0.05% phenol) or 16α-bromoepiandrosterone in vehicle (1 mg/animal/day in 100 μL vehicle) was injected subcutaneously before transfer of the cells from the CD45.1 donor animals and the injections were continued daily for 14 days. Thymus, lymph nodes and spleens were collected from the animals at day 15. Samples of thymus, lymph node and spleen were obtained from individuals, and the cells were labeled with fluorescent antibody that bound to CD4, CD25, CD103 or Foxp3. The cells were then analyzed by flow cytometry to enumerate the numbers of the various cell types. The remainder of cells from lymph nodes and spleen of each treatment group were pooled, pre-enriched for CD4^+CD25^+ cells and then analyzed for CD4^+CD25^+ that arose from the host (endogenous CD45.2 cells) and from donor cells (CD45.1 cells that converted from the CD4^+CD25^− donor phenotype to the CD4^+CD25^+ phenotype after residing in vivo for 15 days). The cells were analyzed by cell sorter. To test for regulatory function, varying numbers of purified converted CD45.1 or endogenous CD45.2 CD4^+CD25^+ cells were co-cultured with 2000 CD4^+CD25^− responder cells, 1×10^5 irradiated spleen cells as antigen presenting cells, and […] of anti-CD3 antibody. Fresh CD4^+CD25^+ cells were used as controls. Proliferation was determined by measurement of ^3H-thymidine uptake 4 days after initiation of culture.

human whole blood = experiment: γ-interferon production in human whole blood exposed to LPS; type: cell-based; details: 24 hours with LPS; 16α-bromoepiandrosterone at 100 ng/mL
Description: Anti-inflammation activity in human cells in vitro. […] The amount of γ-interferon was measured in the growth medium when the cells had been incubated in the presence of LPS for 24 hours.

Pseudomonas aeruginosa = experiment: clearance of Pseudomonas aeruginosa infection from lung tissue; type: in vivo, CFTR mice; details: 40 mg/kg; day 10; vs vehicle
Description: Clearance of bacteria from lung tissue. The capacity of 16α-bromoepiandrosterone to clear a Pseudomonas aeruginosa infection from lung tissue was shown using a previously published protocol, A. van Heeckeren et al., J. Clin. Invest., 100(11):2810-2815 […]; A. van Heeckeren et al., Am. J. Respir. Crit. Care Med., 161:271-279 2000. The protocol was conducted in CFTR mice, which are used as an animal model for human cystic fibrosis, S. D. Freedman et al., Proc. Natl. Acad. Sci. USA, 96(24):13995-14000 1999; W. Zeng et al., Am. J. Physiol. Cell. Physiol. […] Establishment of chronic P. aeruginosa infection using agarose beads containing bacteria (50 μL containing about 6.1×10^4 CFU/animal) was published earlier, J. R. Starke et al., Pediatr. Res., 22:698-702 1987. Two groups of mice (n=9 for each group) were treated with 40 mg/kg of 16α-bromoepiandrosterone or vehicle (control) and the bacterial burden in the lungs of the animals was determined at 10 days after introduction of the agarose beads into the lung.

NF-κB = experiment: inhibition of NF-κB activation in NF-κB-bla THP-1 cells after LPS stimulation; type: cell-based, human
Method in brief: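 THP-1 monocytes stably carrying an NF-κB response element–driven β-lactamase reporter, plated about 24 h before activation with LPS at 0.2 ng/mL. Reporter activity measured by FRET ratiometric detection; values are averages of usually 2-4 runs per compound.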

What does the source list for C[C@]12CC[C@H](O)C[C@@H]1CC[C@@H]1[C@@H]2CC[C@]2(C)C(=O)[C@H](Br)C[C@@H]12 [16α-bromoepiandrosterone]?
survival 72 hours after LPS ([1]; 3 mg oral gavage 24 h before and 1 h after LPS): 65%; survival 72 hours after LPS ([1]; 3 mg subcutaneous injection 24 h before and 1 h after LPS): 50%; survival 72 hours after LPS ([1]; second assay, oral gavage 24 h before and 1 h after LPS): 80%; donor CD45.1 CD4^+CD25^+CD103^+ cells of total donor CD4^+CD25^+ cells in spleen [2]: 9.63%; proportion of endogenous CD45.2 CD4^+CD25^+CD103^+ Treg cells in spleen [2]: 13.40%; donor CD45.1 CD4^+CD25^+ cell number in spleen ([2]; day 15): 0.62×10^5 cells; endogenous CD45.2 CD4^+CD25^+ cell number in spleen ([2]; day 15): 5.49×10^6 cells; endogenous CD45.2 CD4^+CD25^+ cells in the thymus ([2]; day 15): 1.59×10^5; production of γ-interferon (human whole blood): Reduced production; bacterial burden in the lungs (Pseudomonas aeruginosa): reduced; maximum inhibition of NF-κB (NF-κB): 100%; IC50 (NF-κB; LPS stimulation, 50% of the compound's maximum inhibition, averages, read-out: IC50): 8.8 µM
